How the values were obtained:
Format in all cases: cell-based
[1] = test system: β-catenin-driven gene transcription in APC-negative colorectal cancer cell line SW480; experiment: Topflash reporter gene assay in SW480 cells
Procedure: Cultured cells were transfected with 100 ng of reporter gene Topflash® together with expression vectors indicated under each graph. […] (A) Data from HEK293 cells co-transfected with wild type or mutant β-catenin (200 ng) and RXRα (20 ng). (B) CAT, a stable cell line that overexpresses β-catenin (left panel). RBC, a stable cell line that overexpresses both RXRα and β-catenin. (C) SW480, a colorectal cancer cell line, was transfected with 100 ng of Topflash®. The amount of RXRα cotransfected was indicated below the X axis. Reporter activity on the Y axis is expressed as either Luciferase Unit or percentage of activity in cells transfected with Topflash® alone.
For transfection of the HEK293 cell line, cells were seeded at a density of 50,000 cells per well in 24-well plates coated with poly-D-Lysine (Becton Dickinson). […] Harvested cells were lysed, and luciferase activity was measured as previously described (de Wet, J. R., Wood, K. V., DeLuca, M., Helinski, D. R., Subramani, S. (1987) Mol. Cell. Biol. 7, 725-737). In cells transfected with the LacZ control gene, β-galactosidase activity was measured by standard colorimetric assays. Renilla reniformis […] activity was determined using the Dual-Luciferase Reporter 100 Assay System (Promega Corporation, 2800 Woods Hollow Road, Madison Wis. USA 53711). […]

RXRα = target: T1, RXRα (Homo sapiens, UniProt P19793); experiment: Western blotting of RXRα protein in HEK293 cells and stable lines
T1 construct: The RXRα coding region was amplified from this clone by PCR; expressed in transfected cells; host or cells: HEK293 (transient; CAT transfected with RXRα)
T1 sequence (P19793 1-462): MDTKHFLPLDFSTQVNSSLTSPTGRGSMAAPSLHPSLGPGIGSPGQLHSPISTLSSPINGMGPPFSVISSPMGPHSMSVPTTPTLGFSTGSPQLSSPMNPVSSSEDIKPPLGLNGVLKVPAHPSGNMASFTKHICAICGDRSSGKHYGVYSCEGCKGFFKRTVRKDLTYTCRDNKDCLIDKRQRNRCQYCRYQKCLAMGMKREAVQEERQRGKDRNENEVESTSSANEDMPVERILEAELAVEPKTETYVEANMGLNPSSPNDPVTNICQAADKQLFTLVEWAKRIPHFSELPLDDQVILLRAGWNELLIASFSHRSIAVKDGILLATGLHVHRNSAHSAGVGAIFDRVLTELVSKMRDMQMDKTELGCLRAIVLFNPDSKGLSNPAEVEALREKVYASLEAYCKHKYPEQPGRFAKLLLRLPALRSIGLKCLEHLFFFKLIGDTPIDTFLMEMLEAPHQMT
Procedure: (A) Western blotting analysis of HEK293 cells transfected with a combination of expression vectors for LacZ (2 μg), V5-tagged β-catenin(4 μg), and Flag-tagged RXRα (2 μg) as indicated below the gels. […] RXRα protein was measured using an HRP-conjugated mouse monoclonal antibody against the Flag tag. (B) Western blotting analysis of stable cell line RBC that overexpresses both β-catenin and RXRα. […] (C) Western blotting analysis of stable cell line CAT that overexpresses only β-catenin. […] Endogenous and overexpressed β-catenin were detected using a rabbit polyclonal antibody as indicated by “Total” whereas overexpressed β-catenin was analyzed using a mouse monoclonal antibody against the V5 tag. Endogenous and overexpressed RXRα were detected by a rabbit polyclonal antibody against RXRα, whereas overexpressed RXRα was determined by an HRP-conjugated mouse monoclonal antibody against the Flag tag. (D) Western blotting analysis of HEK293 cells transfected with a fixed amount of β-catenin (4 μg) plus an increasing amount of RXRα as indicated at the top. […] (E) Western blotting analysis of HEK293, CV-1, and Hela cells transfected with 2 μg of RXRα and 4 μg of wild type or mutant β-catenin. α. […] (F) Northern blotting analysis of RBC cells using β-catenin as a probe.
FIG. 4 Receptor and ligand specificity in degradation of β-catenin by retinoid receptors. HEK293 cells transfected with expression vectors for β-catenin (4 μg) and RXRs (2 μg) or RARs (2 μg) and treated with ligands at concentrations indicated at the top of each gel. Protein levels were detected by Western blotting as shown in this figure. β-catenin and RARs were detected by HRP-conjugated antibodies against their V5 tag. RXRs were detected by HRP-conjugated antibodies against their Flag tag. […] In this experiment, the amount of expression vectors for RXRα and RARs used in transfection was 1 μg.
HEK293 cells were seeded at a density of […] per dish were seeded into 100-mm dishes and cultured overnight in DMEM containing 10% FBS. Cells were transfected with 1-4 μg of various cDNA or parental expression vectors (8 μg of DNA in total) using Lipofectamine®. Five hours after transfection, cells were fed with fresh culture media DMEM containing 10% charcoal-treated FBS with vehicle DMSO or retinoids prepared in DMSO. After a given time of treatment, cells were harvested and lysed in a buffer containing 1% Nonidet® P-40, 30 mM Tris-HCl (pH7.4), 0.5 mM EDTA (pH 8.0), 150 mM NaCl, 10% glycerol, 1 mM sodium orthovanadate, 40 mM NaF, 0.5 mM phenylmethylsulfonyl fluoride (PMSF) and a cocktail of protease inhibitors (Merck).
Total cell lysates were homogenized by passing through a QIAshredder® (Qiagen) and cleared from insoluble materials by centriftigation at 12,000 g. Protein concentration was determined using a Bradford total protein assay kit (Bio-Rad). Total cell lysates were electrophoresed using a 4-12% SDS-PAGE gradient gel and transferred to either nitrocellulose or PVDF filter membranes. The membranes were blocked with 10% non-fat milk reconstituted from dairy milk powder in phosphate-buffered saline (PBS) containing 0.1% Tween®-20 (PBST). The membranes were incubated with primary antibodies at room temperature for 2 hours or at 4° C. for overnight. After the removal of unbound antibodies, membranes were incubated with horseradish peroxidase-conjugated secondary antibodies for one hour at room temperature and washed five times with PBST.

β-galactosidase = experiment: Western blotting of β-galactosidase control (LacZ) in HEK293 cells; details: HEK293 cotransfected with LacZ, 0.1 μM
Procedure: (A) Western blotting analysis of HEK293 cells transfected with a combination of expression vectors for LacZ (2 μg), V5-tagged β-catenin(4 μg), and Flag-tagged RXRα (2 μg) as indicated below the gels. […] RXRα protein was measured using an HRP-conjugated mouse monoclonal antibody against the Flag tag. […] Endogenous and overexpressed β-catenin were detected using a rabbit polyclonal antibody as indicated by “Total” whereas overexpressed β-catenin was analyzed using a mouse monoclonal antibody against the V5 tag. Endogenous and overexpressed RXRα were detected by a rabbit polyclonal antibody against RXRα, whereas overexpressed RXRα was determined by an HRP-conjugated mouse monoclonal antibody against the Flag tag. (D) Western blotting analysis of HEK293 cells transfected with a fixed amount of β-catenin (4 μg) plus an increasing amount of RXRα as indicated at the top.
HEK293 cells were seeded at a density of 2×10 per dish were seeded into 100-mm dishes and cultured overnight in DMEM containing 10% FBS. Cells were transfected with 1-4 μg of various cDNA or parental expression vectors (8 μg of DNA in total) using Lipofectamine®. […]
Total cell lysates were homogenized by passing through a QIAshredder® (Qiagen) and cleared from insoluble materials by centriftigation at 12,000 g. Protein concentration was determined using a Bradford total protein assay kit (Bio-Rad). […]

CC(/C=C/[C@@H]1C[C@]1(C)c1ccc2c(c1)C(C)(C)CCC2(C)C)=C\C(=O)O [AGN 4204]
reporter gene activity ([1]; SW480, low levels of endogenous RXRs only): not sufficient to produce an effect
reporter gene activity ([1]; SW480 cotransfected with RXRα, 0.1 μM, 17 hours): a decrease in reporter gene activity
endogenous RXRα protein (RXRα; CAT cells, 0.1 μM, 17 hours): a decrease of the endogenous RXRα was observed
amount of RXRα protein (RXRα; HEK293, independent of β-catenin, 0.1 μM): a reduction inn the amount of RXRα
degradation of RXRα (RXRα; HEK293 co-expressing RXRα with RARα): RXR-ligand-dependent degradation
concentration effective in inducing degradation of RXRα (RXRα; HEK293 transfected with β-catenin and RXRα, 17 hours): 1 nM
time at which degradation of RXRα was first detected (RXRα; RBC cells, 0.1 μM): 1 h
expression of β-galactosidase protein from LacZ control (β-galactosidase): not significantly affected

Reference: US20040009921A1, “Methods and compositions for the treatment of cancer” (Allergan, Inc., priority 2002, published 2004)
